Measurements taken from PubChem BioAssay (NCI).
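A five-concentration, 48-hour dose response in 96-well plates underlies each endpoint, interpolated linearly between surrounding concentrations. At the GI50, growth is halved. TGI marks complete inhibition of growth.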

Legend:
Assay in all cases: NCI anticancer screen, dose series, 48 h
OVCAR-8 ovarian = test system: OVCAR-8 ovarian
HL-60(TB) leukemia = test system: HL-60(TB) leukemia
SN12C renal = test system: SN12C renal
HT29 colon = test system: HT29 colon
CAKI-1 renal = test system: CAKI-1 renal
SNB-19 CNS = test system: SNB-19 CNS
SF-539 CNS = test system: SF-539 CNS
COLO 205 colon = test system: COLO 205 colon
BT-549 breast = test system: BT-549 breast
MDA-MB-435 = test system: MDA-MB-435

Row | SMILES | TGI (OVCAR-8 ovarian) [µM] | TGI (HL-60(TB) leukemia) [µM] | TGI (SN12C renal) [µM] | TGI (HT29 colon) [µM] | TGI (CAKI-1 renal) [µM] | TGI (SNB-19 CNS) [µM] | TGI (SF-539 CNS) [µM] | TGI (COLO 205 colon) [µM] | GI50 (OVCAR-8 ovarian) [nM] | GI50 (SN12C renal) [µM] | GI50 (HT29 colon) [nM] | GI50 (BT-549 breast) [nM] | TGI (BT-549 breast) [µM] | GI50 (CAKI-1 renal) [nM] | GI50 (SNB-19 CNS) [nM] | GI50 (SF-539 CNS) [µM] | GI50 (MDA-MB-435) [nM] | TGI (MDA-MB-435) [nM] | GI50 (COLO 205 colon) [nM] | GI50 (HL-60(TB) leukemia) [nM]
1 | N#CC(C#N)=Cc1ccc(CP(=O)(O)O)cc1 | > 100 | > 100 | > 100 | > 100 | > 100 | > 100 | > 100 | > 100 |  |  |  |  |  |  |  |  |  |  |  | 
2 | CC(C)C(=O)c1c(C(F)(F)F)n([O-])c2cc(F)c(F)cc2[n+]1=O | 0.85 |  | 0.767 | 0.547 | 0.5 | 3.08 | 1 | 1.66 | 262 | 0.288 | 168 | 587 | 1.9 | 62.6 | 1340 | 0.381 | 724 | 2150 | 427 | 
3 | CCCN(CCC)C(=O)c1nc(N)nc(-c2ccc(OC)cc2)c1-c1ccc(OC)cc1 | > 100 | > 100 | > 100 | > 100 | > 100 | > 100 | > 100 | > 100 |  |  |  |  |  |  |  |  |  |  |  | 
4 | COC1=CC(c2ccc[nH]2)=N/C1=C\c1[nH]c(C)c(CC(=O)OCc2ccccc2)c1C | 1.27 | 2.44 |  | 1.41 | 2.27 | 12.4 |  | 1.27 | 362 |  | 205 | 432 | 3.08 | 307 | 671 |  | 369 | 1420 | 240 | 537
5 | CCCCc1c2cnccc2c(CCCC)c2c1[nH]c1ccccc12 | 31.1 |  | 62.4 | 29 | 30.2 | 22.1 | 12.6 | 27.4 |  |  |  |  |  |  |  |  |  |  |  | 
6 | CC(=O)OC12c3ccccc3-c3ccccc3C1C(C(=O)O)C2C(=O)O (centres undefined) | > 10 | > 10 | > 10 | > 10 | > 10 | > 10 | > 10 | > 10 |  |  |  |  |  |  |  |  |  | > 10000 |  | 
7 | CCOC(=O)C12C(C(=O)OC)=C(C)N(NC(=O)Nc3ccccc3)C1(N)N(NC(=O)Nc1ccccc1)C(C)=C2C(=O)OC (centres undefined) | > 100 | 48.8 | > 100 | 52.9 | > 100 | > 100 | 37.9 | > 56.2 |  |  |  |  |  |  |  |  |  |  |  | 
8 | O=c1oc2cc(OC/C(=N/O)c3ccc(F)cc3)ccc2c2ccccc12 | 43.6 |  | 37.3 | 43.2 | 33.4 | 46.3 | 36.4 | 61.4 | 22500 | 20.1 | 19400 | 21700 | 42.3 | 13100 | 21800 | 20.1 | 17300 | 38700 | 25300 | 
9 | CC(C(=O)c1ccccc1)C1(O)C(=O)Nc2ccc(Cl)cc21 (centres undefined) | > 100 |  | > 100 | > 100 | > 100 | > 100 | > 100 | > 100 |  |  |  |  |  |  |  |  |  |  |  | 
